Data taken from patent US5498632A, “Esters of acyl carnitines with long-chain aliphatic alcohols and pharmaceutical compositions containing same having antibacterial activity” (Sigma-Tau Industrie Farmaceutiche Riunite S.p.A., priority 1992, dated 1996).

Assays:
Assay type in all cases: cell-based
[1] = tested on: Streptococcus faecalis (501); test: MIC in broth, Gram+ strains; settings: Enterococcus faecalis; S. faecalis (501), Mueller-Hinton broth, 37° C., 18 hours; read-out: Minimal Inhibitory Concentration (MIC)
Method: (§1) Evaluation of the Minimal Inhibitory Concentration (MIC) in broth of 15 new substances for Gram+ bacterial strains.
(§2) The following strains were used: Staphylococcus aureus (4); Streptococcus faecalis (8); Bacillus pumilus (1); Bacillus subtilis (1).
(§3) MICs were determined by a standard microdilution test, using serial two-fold dilutions of the substances in Mueller-Hinton broth.
(§4) The inoculum was prepared from an overnight culture in Mueller-Hinton broth matching the 0.5 Mc Farland (turbidity) standard (BRAY W. E., Clinical Laboratory Methods, 5th Ed. C. V. MOSBY, St. Louis, Mo. 1957), and was adjusted to a final concentration of 5.0×10^4 colony-forming units/ml.
(§5) Equal volumes (0.1 ml) of both bacterial suspensions and substance solutions were distributed in microtiter plates (Falcon, 96 wells, round bottom), and then placed in a humidified incubator (37° C.) for 18 hours.
(§6) The results, in terms of MIC values, resistant strain number and mean MIC values versus susceptible strains, are illustrated in Tables 1-6.

[2] = tested on: Staphylococcus aureus (303); test: MIC in broth, Gram+ strains; settings: S. aureus (303), Mueller-Hinton broth, 37° C., 18 hours, read-out: Minimal Inhibitory Concentration (MIC)
Method: as §1, §2, §3, §4, §5, §6

[3] = tested on: Streptococcus faecalis (519); test: MIC in broth, Gram+ strains; settings: Enterococcus faecalis; S. faecalis (519), Mueller-Hinton broth, 37° C., 18 hours; read-out: Minimal Inhibitory Concentration (MIC)
Method: as §1, §2, §3, §4, §5, §6

[4] = tested on: Streptococcus faecalis (R 2); test: MIC in broth, Gram+ strains; settings: Enterococcus faecalis; S. faecalis (R 2), Mueller-Hinton broth, 37° C., 18 hours; read-out: Minimal Inhibitory Concentration (MIC)
Method: as §1, §2, §3, §4, §5, §6

[5] = tested on: Streptococcus faecalis (518); test: MIC in broth, Gram+ strains; settings: Enterococcus faecalis; S. faecalis (518), Mueller-Hinton broth, 37° C., 18 hours; read-out: Minimal Inhibitory Concentration (MIC)
Method: as §1, §2, §3, §4, §5, §6

[6] = tested on: Staphylococcus aureus (ATCC 14154); test: MIC in broth, Gram+ strains; settings: ATCC14154, S. aureus (ATCC 14154), Mueller-Hinton broth, 37° C., 18 hours, read-out: Minimal Inhibitory Concentration (MIC)
Method: as §1, §2, §3, §4, §5, §6

[7] = tested on: Streptococcus faecalis (516); test: MIC in broth, Gram+ strains; settings: Enterococcus faecalis; S. faecalis (516), Mueller-Hinton broth, 37° C., 18 hours; read-out: Minimal Inhibitory Concentration (MIC)
Method: as §1, §2, §3, §4, §5, §6

[8] = tested on: Bacillus subtilis (ATCC 6051); test: MIC in broth, Gram+ strains; settings: ATCC6051, B. subtilis (ATCC 6051), Mueller-Hinton broth, 37° C., 18 hours, read-out: Minimal Inhibitory Concentration (MIC)
Method: as §1, §2, §3, §4, §5, §6

[9] = tested on: Streptococcus faecalis (509); test: MIC in broth, Gram+ strains; settings: Enterococcus faecalis; S. faecalis (509), Mueller-Hinton broth, 37° C., 18 hours; read-out: Minimal Inhibitory Concentration (MIC)
Method: as §1, §2, §3, §4, §5, §6

[10] = tested on: Staphylococcus aureus (LC1); test: MIC in broth, Gram+ strains; settings: S. aureus (LC1), Mueller-Hinton broth, 37° C., 18 hours, read-out: Minimal Inhibitory Concentration (MIC)
Method: as §1, §2, §3, §4, §5, §6

[11] = tested on: Streptococcus faecalis (UM); test: MIC in broth, Gram+ strains; settings: Enterococcus faecalis; S. faecalis (UM), Mueller-Hinton broth, 37° C., 18 hours; read-out: Minimal Inhibitory Concentration (MIC)
Method: as §1, §2, §3, §4, §5, §6

[12] = tested on: Bacillus pumilus (CN 607); test: MIC in broth, Gram+ strains; settings: B. pumilus (CN 607), Mueller-Hinton broth, 37° C., 18 hours, read-out: Minimal Inhibitory Concentration (MIC)
Method: as §1, §2, §3, §4, §5, §6

[13] = tested on: Streptococcus faecalis (505); test: MIC in broth, Gram+ strains; settings: Enterococcus faecalis; S. faecalis (505), Mueller-Hinton broth, 37° C., 18 hours; read-out: Minimal Inhibitory Concentration (MIC)
Method: as §1, §2, §3, §4, §5, §6

Gram+ bacterial strains = test: Mean MIC in broth and resistant strain number, Gram+ strains; settings: 18 h, versus susceptible strains
Method: as §1, §2, §3, §4, §5, §6

Gram- bacterial strains = test: Mean MIC in broth and resistant strain number, Gram- strains; settings: 18 h, read-out: Mean MIC values
Method: as §3, §4, §5
(§7) Evaluation of the Minimal Inhibitory Concentration (MIC) in broth of 16 new substances for Gram- bacterial strains.
(§8) The following strains were used: Enterobacter (1), Escherichia (3), Klebsiella (3), Proteus (3); Pseudomonas (2); Salmonella (2), Serratia (1).

Escherichia coli (92 F) = test: MIC in broth, Gram- strains; settings: 18 h, E. coli (92 F), read-out: Minimal Inhibitory Concentration (MIC)
Method: as §3, §4, §5, §7, §8

[14] = tested on: Pseudomonas aeruginosa (3 E); test: MIC in broth, Gram- strains; settings: 18 h, read-out: Minimal Inhibitory Concentration (MIC)
Method: as §3, §4, §5, §7, §8

Escherichia coli (R 57B) = test: MIC in broth, Gram- strains; settings: 18 h, E. coli (R 57B), read-out: Minimal Inhibitory Concentration (MIC)
Method: as §3, §4, §5, §7, §8

Proteus vulgaris (UM) = test: MIC in broth, Gram- strains; settings: 18 h, read-out: Minimal Inhibitory Concentration (MIC)
Method: as §3, §4, §5, §7, §8

[15] = tested on: Klebsiella pneumoniae (7823); test: MIC in broth, Gram- strains; settings: 18 h, read-out: Minimal Inhibitory Concentration (MIC)
Method: as §3, §4, §5, §7, §8

Proteus mirabilis (32) = test: MIC in broth, Gram- strains; settings: 18 h, read-out: Minimal Inhibitory Concentration (MIC)
Method: as §3, §4, §5, §7, §8

[16] = tested on: Pseudomonas aeruginosa (10 E); test: MIC in broth, Gram- strains; settings: 18 h, read-out: Minimal Inhibitory Concentration (MIC)
Method: as §3, §4, §5, §7, §8

[17] = tested on: Klebsiella aerogenes (SH 1082); test: MIC in broth, Gram- strains; settings: 18 h, read-out: Minimal Inhibitory Concentration (MIC)
Method: as §3, §4, §5, §7, §8

[18] = tested on: Enterobacter aerogenes (UM); test: MIC in broth, Gram- strains; settings: Klebsiella aerogenes, 18 h, read-out: Minimal Inhibitory Concentration (MIC)
Method: as §3, §4, §5, §7, §8

Klebsiella oxytoca (552) = test: MIC in broth, Gram- strains; settings: 18 h, read-out: Minimal Inhibitory Concentration (MIC)
Method: as §3, §4, §5, §7, §8

[19] = tested on: Salmonella typhimurium (D.S.); test: MIC in broth, Gram- strains; settings: Salmonella enterica, 18 h, read-out: Minimal Inhibitory Concentration (MIC)
Method: as §3, §4, §5, §7, §8

Proteus morganii (D.S.) = test: MIC in broth, Gram- strains; settings: Morganella morganii, 18 h, read-out: Minimal Inhibitory Concentration (MIC)
Method: as §3, §4, §5, §7, §8

Salmonella typhi (J) = test: MIC in broth, Gram- strains; settings: Salmonella enterica, 18 h, read-out: Minimal Inhibitory Concentration (MIC)
Method: as §3, §4, §5, §7, §8

[20] = tested on: Helicobacter pylori NCTC 11637; test: In vitro synergistic effect of ST 722 and Bismuth Subcitrate
Method: CBS from the commercially available product De-Nol® (Gist-Brocades, Netherland), i.e. ammonium and potassium double salt of colloidal bismuth citrate hydroxide, was utilized by preparing a suspension of 10 mg/ml CBS in 1N NaOH. After diluting 1:10 in Mueller-Hinton broth, 8 serial two-fold dlitutions in the same medium were made. The compound ST 722 was dissolved in Mueller-Hinton broth at a starting concentration of 100 mcg/ml, then 7 serial two-fold dilutions were carried out.
The "in vitro" anti-Helicobacter activity of both CBS and ST 722, alone and in association, was tested by utilizing the strain H. pylori NCTC 11637.
A 24-hour culture of Helicobacter in Columbia agar medium supplemented with Vitox (Oxoid) and 7% defribinated horse blood is washed with Mueller-Hinton broth.
Following densitometric evaluation (reading at 600 nm), the bacterial suspension was adjusted to a concentration of 1.0×10^9 cells/ml and 0.2-ml volumes were distributed into each well of a 96-well U-bottomed microtiter plate.
A 1-μl volume of this bacterial suspension was then distributed, by means of a Steers-type replicator apparatus, into the wells of microtiter plates containing the substances, either alone or in association. The final bacterial inoculum contained approximately 1.0×10^6 bacterial cells.
The procedure described by Garrod et al. (GARROD, L. P. and WATERWORTH, P. M., 1962. Methods of testing combined antibiotic bactericidal action and the significance of the results. J. Clin. Pathol. 15, 328-338) was utilized.
Briefly, 250-μl volumes of each test substance, either alone or admixed in all the possible combinations, were additioned to 4.5 ml of Mueller-Hinton agar containing 5% defribinated horse serum. Volumes of 0.2 ml/well of the resulting solution were distributed into the wells of a microtiter plate, then seeded with 1 μl/well of a standardized bacterial suspension, and finally incubated for 48 hours at 37° C. in a 10% CO2 atmosphere.
In order to evaluate the results obtained with combinations of antibiotics it was utilized the method (KROGSTAD, D. J. and MOELLERING, R. C., 1983. Antimicrobial combinations. In LORIAN, V., Antibiotics in Laboratory Medicine, 15, 537-549) based on the calculation of the Fractional Inhibitory Concentration Index (FIC index).
FIC index is calculated as follows: [formula] Where (A) is the MIC of substance A in the association and (MICA) is the […] of the organism to substance A alone. FICA is the fractional inhibitory concentration of substance A. (B), (MICB) and FICB are defined in the same fashion for substance B.
Based on these criteria, the effect of a combination of 2 substances is referred to as 'synergistic" when the FIC index is ≤0.5, "additive" with a FIC index=1, and "antagonist" when FIC index is >1.

CCCCCCCCCCCCOC(=O)CC(C[N+](C)(C)C)OC(=O)C(C)C (stereo not drawn) [ST 1038]
MIC [1]: 3.12 µg/mL | MIC [2]: 6.25 µg/mL | MIC [3]: 3.12 µg/mL | MIC [4]: 3.12 µg/mL | MIC [5]: 3.12 µg/mL | MIC [6]: 3.12 µg/mL | MIC [7]: 3.12 µg/mL | MIC [8]: 6.25 µg/mL | MIC [9]: 3.12 µg/mL | MIC [10]: 1.56 µg/mL | MIC [11]: 3.12 µg/mL | MIC [12]: 3.12 µg/mL | MIC [13]: 3.12 µg/mL | MIC (Gram+ bacterial strains): 3.48 µg/mL | MIC (Gram- bacterial strains): 41.7 µg/mL | MIC (Escherichia coli (92 F)): 25 µg/mL | MIC [14]: 100 µg/mL | MIC (Escherichia coli (R 57B)): 100 µg/mL | MIC (Proteus vulgaris (UM)): 100 µg/mL | MIC [15]: 25 µg/mL | MIC (Proteus mirabilis (32)): > 100 µg/mL | MIC [16]: 100 µg/mL | MIC [17]: 50 µg/mL | MIC [18]: 25 µg/mL | MIC (Klebsiella oxytoca (552)): 25 µg/mL | MIC [19]: 25 µg/mL | MIC (Proteus morganii (D.S.)): 100 µg/mL | MIC (Salmonella typhi (J)): 25 µg/mL

Colloidal Bismuth Subcitrate [CBS, reference compound]
FIC (fractional inhibitory concentration) ([20]; ST 722 with CBS): 0.50 | MIC ([20]; substance alone, H. pylori NCTC 11637, 48 hours): 6.25 µg/mL
